In US20250082633A1, “COMPOUNDS AND METHODS FOR MODULATING SPLICING” (REMIX THERAPEUTICS INC., priority 2021, published 2025):

Assays:
Target C = assay: RT-qPCR splicing assay, gene panel, Target C canonical junction (CJ) mRNA; format: cell-based; conditions: Homo sapiens; decrease in CJ mRNA levels; larger panel of genes; Table 3; read-out: Target C CJ IC50
Protocol: Compounds described herein were used to modulate RNA transcript abundance in cells. The expression of a target mRNA was measured by detecting the formation of an exon-exon junction in the canonical transcript (CJ). A compound mediated exon-inclusion event was detected by observing an increase in formation of a new junction with an alternative exon (AJ). Real-time qPCR assays were used to detect these splicing switches and interrogate the potency of various compounds towards different target genes. A high-throughput real time quantitative PCR (RT-qPCR) assay was developed to measure these two isoforms of the mRNA (CJ and AJ) for exemplary genes, such as HTT, SMN2, and MYB, together with a control housekeeping gene, GAPDH or GUSB or PPIA, used for normalization. Briefly, the A673 or K562 cell line was treated with various compounds described herein (e.g., compounds of Formula (I)). After treatment, the levels of the HTT, MYB, or SMN2 mRNA targets were determined from each sample of cell lysate by cDNA synthesis followed by qPCR.
The A673 cell line was cultured in DMEM with 10% FBS. Cells were diluted with full growth media and plated in a 96-well plate (15,000 cells in 100 ul media per well). The plate was incubated at 37° C. with 5% CO2 for 24 hours to allow cells to adhere. An 11-point 3-fold serial dilution of the compounds was made in DMSO then diluted in media in an intermediate plate. Compounds were transferred from the intermediate plate to the cell plate with the top dose at a final concentration of 10 uM in the well. Final DMSO concentration was kept at or below 0.25%. The cell plate was returned to the incubator at 37° C. with 5% CO2 for an additional 24 hours.
The K562 cell line was cultured in IMDM with 10% FBS. For K562, cells were diluted with full growth media and plated in either a 96-well plate (50,000 cells in 50 uL media per well) or a 384-well plate (8,000-40,000 cells in 45 uL media per well). An 11-point 3-fold serial dilution of the compounds were made in DMSO then diluted in media in an intermediate plate. Compound was transferred from the intermediate plate to the cell plate with the top dose at a final concentration of 10 uM in the well. Final DMSO concentration was kept at or below 0.25%. Final volume was 100 uL for 96-well plate and 50 uL for 384-well plate. The cell plate was then placed in an incubator at 37° C. with 5% CO2 for 24 hours.
The cells were then gently washed with 50 uL-100 uL cold PBS before proceeding to addition of lysis buffer. 30 uL-50 μL of room temperature lysis buffer with DNAse I (and optionally RNAsin) was added to each well. Cells were shaken/mixed thoroughly at room temperature for 5-10 minutes for lysis to take place and then 3 uL-5 μL of room temperature stop solution was added and wells were shaken/mixed again. After 2-5 minutes, the cell lysate plate was transferred to ice for RT-qPCR reaction setup. The lysates could also be frozen at −80° C. for later use.
In some cases, a direct lysis buffer was used. An appropriate volume of 3× lysis buffer (10 mM Tris, 150 mM NaCl, 1.5%-2.5% Igepal and 0.1-1 U/uL RNAsin, pH 7.4) was directly added to either K562 or A673 cells in media and mixed by pipetting 3 times. The plates were then incubated at room temperature with shaking/rocking for 20-50 minutes to allow for lysis to take place. After this time, the cell lysate plate was transferred to ice to set up for the RT-qPCR reactions. The lysates could also be frozen at −80° C. for later use.
To set up 10 uL RT-qPCR reactions, cell lysates were transferred to 384-well qPCR plates containing the master mix according to the table below. The plates were sealed, gently vortexed, and spun down before the run. The volumes were adjusted accordingly in some instances where the reaction was carried in 20 μL. The table below summarizes the components of the RT-qPCR reactions:
The RT-qPCR reaction was performed using a QuantStudio (ThermoFisher) under the following fast cycling conditions. […]

[1] = tested on: HiBiT-tagged MYB protein in K562 cells; assay: HiBit protein abundance assay, MYB; format: cell-based, human; conditions: K562 HiBiT-modified cells, 24 hours, luminescence
Protocol: Compounds described herein were used to screen for effects on quantitative protein abundance using a HiBit assay system (Promega). Quantitative protein abundance was determined by measuring the protein levels of HiBit-tagged protein targets expressed in cell culture via luminescence using the Nano-Glo HiBiT Lytic Detection System, which uses a split complementation assay format to reconstitute NanoBiT enzyme to generate a luminescent signal. A protein abundance assay was developed such that endogenous protein targets could be modified with the HiBiT peptide tag and their abundance could be assessed after compound treatment. Briefly, K562 cell lines containing a HiBiT-modification were treated with various compounds described herein (e.g., compounds of Formulas (I), (II), or (III)). After treatment for 24 hours, the protein abundance of a specific target was determined by measuring luminescence. • Promega Nano-Glo HiBiT Lytic Detection System (cat #N3030) • Corning 384-well TC-treated microplates (cat #3570) • Synthego Engineered Cells Knock-In Clones [table] Cells were maintained in IMDM with 10% FBS. Before the assay, cells were diluted with phenolphthalein-free growth media (IMDM+1% FBS media) and were seeded in a 384-well plate at a density of 10000 cells/well (for each cell line listed in Table 6). Each compound was prepared as a 10-point 3-fold serial dilution in DMSO with the top dose at a final concentration of 10 μM in the well. Unmodified K562 cells were added at the previously specified density with DMSO to serve as an assay baseline and positive control (PC) and DMSO only with the respective modified cell lines was added to the negative control (NC) columns. Final DMSO concentration was kept at or below 0.25%. Treated cell plates were placed in an incubator at 37° C. with 5% CO2 for 24 hours. After 24 hours, 25 μL of Complete HiBit Lytic reagent was added to each well at room temperature (e.g. one plate requiring 10 mL Lytic Buffer, 100 μL LgBiT Protein, 200 μL Lytic Substrate), shaken for 5 minutes at 600 RPM, then left to sit for 10 minutes for signal to stabilize before reading on a Spark Cyto plate reader (Tecan) with a 500 ms measurement time. To determine compound effects on protein abundance of each target in Table 6, the percent response for each respective cell line was calculated at each compound concentration as follows: For the normalized response at each concentration, a four-parameter logistical regression was fit to the data and the response was interpolated at the 50% value to determine a concentration for protein abundance at 50% (IC50) the untreated control.

In the case of `Cc1cn2nc(-c3cc(F)c4nn(C5CCN(CC6CC6)CC5)cc4c3)cc(C)c2n1` [Compound 149, 6-[2-[1-(cyclopropylmethyl)-4-piperidyl]-7-fluoro-indazol-5-yl]-2,8-dimethyl-imidazo[1,2-b]pyridazine], the IC50 (Target C) is reported as < 0.1 µM and the IC50 [1] is reported as 0.1 to 1 µM.
For `Cc1c(O)c(-c2ccc3nn(C4CCNCC4)cc3n2)cc2cn(C)nc12` [Compound 109, 2,7-dimethyl-5-[2-(4-piperidyl)pyrazolo[4,3-b]pyridin-5-yl]indazol-6-ol], the IC50 (Target C) was 0.1 to 1 µM and the IC50 [1] was 0.1 to 1 µM.
`Cc1cn2nc(-c3cc(F)c4nn(C5CCN(CCF)CC5)cc4c3)cc(C)c2n1` [Compound 152] showed an IC50 (Target C) of 0.1 to 1 µM and an IC50 [1] of 0.1 to 1 µM.
Compound `Cc1nc2c(F)cc(-c3cc(F)c4nn(C5CCNCC5)cc4c3)cc2o1` [Compound 136, 4-fluoro-6-[7-fluoro-2-(4-piperidyl)indazol-5-yl]-2-methyl-1,3-benzoxazole] has an IC50 (Target C) of 0.1 to 1 µM and an IC50 [1] of 0.1 to 1 µM.
For `Cc1cn2nc(-c3cc(F)c4nn(C5CCN(C)CC5)cc4c3)cc(C)c2n1` [Compound 150, 6-[7-fluoro-2-(1-methyl-4-piperidyl)indazol-5-yl]-2,8-dimethyl-imidazo[1,2-b]pyridazine], the IC50 (Target C) was 0.1 to 1 µM and the IC50 [1] was 0.1 to 1 µM.
`Cn1cc2cc(-c3cc(F)c4nn(C5CCNCC5)cc4c3)cc(C#N)c2n1` [Compound 130, 5-[7-fluoro-2-(4-piperidyl)indazol-5-yl]-2-methyl-indazole-7-carbonitrile] showed an IC50 (Target C) of 0.1 to 1 µM and an IC50 [1] of 0.1 to 1 µM.
`Cn1cc2cc(-c3cc(F)c4nn(C5CCNC6(CC6)C5)cc4c3)cc(F)c2n1` (stereo not shown) [Compound 108, 2-(4-azaspiro[2.5]octan-7-yl)-7-fluoro-5-(7-fluoro-2-methyl-indazol-5-yl)indazole] gave an IC50 (Target C) of 1 to 10 µM and an IC50 [1] of 0.1 to 1 µM.
`Cc1cn2cc(-c3cc(F)c4nn(C5CCNCC5)cc4c3)cc(C)c2n1` [Compound 125, 5-(2,8-dimethylimidazo[1,2-a]pyridin-6-yl)-7-fluoro-2-(4-piperidyl)indazole] was tested, and the IC50 (Target C) was 0.1 to 1 µM and the IC50 [1] was 0.1 to 1 µM.
In the case of `Cc1cn2nc(-n3cc4cc(C5CCNCC5)cc(F)c4n3)cc(C)c2n1` [Compound 120, 6-[7-fluoro-5-(4-piperidyl)indazol-2-yl]-2,8-dimethyl-imidazo[1,2-b]pyridazine], the IC50 (Target C) is reported as > 10 µM and the IC50 [1] is reported as 1 to 10 µM.
With `Cc1cc(-n2cc3cc(N4CCNCC4)cc(F)c3n2)cc2cn(C)nc12` [Compound 117, 2-(2,7-dimethylindazol-5-yl)-7-fluoro-5-piperazin-1-yl-indazole] the IC50 (Target C) was > 10 µM and the IC50 [1] was 1 to 10 µM.
With `Cc1cn2nc(-c3ccc4nn(C5CCNCC5)cc4c3)cc(C)c2n1` [Compound 192, 2,8-dimethyl-6-[2-(4-piperidyl)indazol-5-yl]imidazo[1,2-b]pyridazine] the IC50 (Target C) was 0.1 to 1 µM and the IC50 [1] was 0.1 to 1 µM.
`Cn1cc2cc(-c3ccc4nn(C5CCNCC5)cc4n3)c(O)c(F)c2n1` [Compound 107, 7-fluoro-2-methyl-5-[2-(4-piperidyl)pyrazolo [4,3-b]pyridin-5-yl]indazol-6-ol] showed an IC50 (Target C) of 0.1 to 1 µM and an IC50 [1] of 0.1 to 1 µM.
`Cc1cn2nc(-c3cc(F)c4nn([C@@H]5CCNC[C@H]5F)cc4c3)cc(C)c2n1` [Compound 168, 6-(7-fluoro-2-((3R,4R)-3-fluoropiperidin-4-yl)-2H-indazol-5-yl)-2,8-dimethylimidazo [1,2-b]pyridazine] was tested, and the IC50 (Target C) was 0.1 to 1 µM and the IC50 [1] was 0.1 to 1 µM.
Work on `Cc1cn2nc(-c3cc(F)c4nn(C5CCNC6(CCC6)C5)cc4c3)cc(C)c2n1` (stereo not shown) [Compound 189, 6-[2-(5-azaspiro[3.5]nonan-8-yl)-7-fluoro-indazol-5-yl]-2,8-dimethyl-imidazo[1,2-b]pyridazine] yielded an IC50 (Target C) of 0.1 to 1 µM and an IC50 [1] of 0.1 to 1 µM.
In the case of `Fc1cc(-c2ccc3ccncc3c2)cc2cn(C3CCNCC3)nc12` [Compound 158, 7-[7-fluoro-2-(4-piperidyl)indazol-5-yl]isoquinoline], the IC50 (Target C) is reported as > 10 µM and the IC50 [1] is reported as 1 to 10 µM.
In the case of `Cc1nc2c(C)cc(-c3cc(F)c4nn(C5CCNCC5)cc4c3)cc2o1` [Compound 137, 6-[7-fluoro-2-(4-piperidyl)indazol-5-yl]-2,4-dimethyl-1,3-benzoxazole], the IC50 (Target C) is reported as 0.1 to 1 µM and the IC50 [1] is reported as 0.1 to 1 µM.
`Cc1cn2nc(-c3cc(F)c4nn([C@H]5CCNC6(CC6)C5)cc4c3)cc(C)c2n1` [Compound 172] was tested, and the IC50 (Target C) was < 0.1 µM and the IC50 [1] was < 0.1 µM.
For `Cn1cc2cc(-c3cc(Cl)c4nn(C5CCNCC5)cc4n3)c(O)cc2n1` [Compound 141], the IC50 (Target C) was > 10 µM and the IC50 [1] was > 10 µM.
With `Cc1ncc2cc(-c3cc(F)c4nn(C5CCNCC5)cc4c3)ccc2n1` [Compound 165, 6-[7-fluoro-2-(4-piperidyl)indazol-5-yl]-2-methyl-quinazoline] the IC50 (Target C) was > 10 µM and the IC50 [1] was > 10 µM.
For `Cc1ccc2cc(-c3cc(F)c4nn(C5CCNCC5)cc4c3)ccc2n1` [Compound 163, 6-[7-fluoro-2-(4-piperidyl)indazol-5-yl]-2-methyl-quinoline], the IC50 (Target C) was > 10 µM and the IC50 [1] was 1 to 10 µM.
`Cc1cc(-c2cc(F)c3nn(C4CCNCC4)cc3c2)cc2cn(C)nc12` [Compound 133, 5-(2,7-dimethylindazol-5-yl)-7-fluoro-2-(4-piperidyl)indazole] showed an IC50 (Target C) of 0.1 to 1 µM and an IC50 [1] of 0.1 to 1 µM.
In the case of `CCN1CCC(n2cc3cc(-c4cc(C)c5nc(C)cn5n4)cc(F)c3n2)CC12CC2` (stereo not shown) [Compound 177, 6-[2-(4-ethyl-4-azaspiro[2.5]octan-7-yl)-7-fluoro-indazol-5-yl]-2,8-dimethyl-imidazo[1,2-b]pyridazine], the IC50 (Target C) is reported as < 0.1 µM and the IC50 [1] is reported as 0.1 to 1 µM.
In the case of `Cc1cn2nc(-c3ccc4nn(C5CCNCC5)cc4n3)cc(C)c2n1` [Compound 138, 2,8-dimethyl-6-[2-(4-piperidyl)pyrazolo[4,3-b]pyridin-5-yl]imidazo[1,2-b]pyridazine], the IC50 (Target C) is reported as 0.1 to 1 µM and the IC50 [1] is reported as 0.1 to 1 µM.
